Data on five molecules can be found in patent US20120065187A1 (ALCON RESEARCH, LTD, priority 2008, published 2012).

Molecules are shown by their SMILES.

The test system of assay [1] is Hartley VAF outbred guinea pigs. The assay can be described thus: Allergic conjunctivitis in passively sensitized guinea pigs (conjunctival EPO activity). Format: in vivo. Set-up: key: +: a ≦0.1% qd dose was statistically equivalent to dexamethasone with respect to reduction of EPO activity; −: the compound was statistically inferior to dexamethasone and not different than vehicle. The settings on record: ≦0.1% qd topical, 1 hour prior to ovalbumin challenge; reduction of conjunctival EPO activity vs dexamethasone. Here is the method:
(§1) Male Hartley VAF outbred guinea pigs were passively sensitized to ovalbumin by a single OD subconjunctival injection of undiluted guinea pig anti-ovalbumin antiserum 24 hours before OD topical challenge with 500 μg ovalbumin in saline. Control animals were injected with saline only and challenged with ovalbumin. To determine acute phase drug efficacy, 30 min after challenge animals were clinically scored by a masked observer for severity of signs of conjunctivitis based on a standard scale. Test compounds were administered topically 1 hour prior to challenge (QD protocol), or 1 hour prior to challenge and again 8 hours after challenge (BID protocol). Twenty-four hours after challenge, animals were euthanized and conjunctivae were harvested for determination of tissue eosinophil peroxidase (EPO) concentration as a marker of allergic inflammation. Homogenates of freshly collected tissues were prepared by shaking the tissues in 2 mL round-bottom tubes containing 0.5 mL of homogenization buffer (50 mM Tris HCl, pH 8.0, 6 mM KBr) and one 5-mm stainless steel bead on a Qiagen TissueLyser at 30 Hz for 5 min. Homogenates were frozen and thawed once, then centrifuged at 10,000 rpm for 5 min. EPO activity in supernatants was measured by reacting diluted homogenates with a solution of 6 mM o-phenylenediamine substrate and 8.8 mM H2O2 in homogenization buffer for 3 min. The reaction was stopped with 4M H2SO4 and absorbances were measured at […] on a spectrophotometric plate reader. Total EPO in samples was calculated from a standard curve of recombinant human EPO in each assay. EPO activity was normalized to total protein concentration (Pierce BCA assay) in supernatants. Background EPO activity was determined from the unsensitized, antigen-challenged control group. Percent inhibition was calculated from the sensitized, antigen-challenged, vehicle-treated control group in each experiment. Ovalbumin-injected animals dosed topically with 0.1% w/v dexamethasone (dex) served as positive control. Groups were compared by ANOVA with Dunnett's or Tukey's post-hoc tests where appropriate with significance assigned at the 95% confidence level.
(§2) The table below summarizes the results.

The test system of assay [2] is CD-1 mice. The assay can be described thus: Model of scratching induced by histamine in CD-1 mice (assessment of H4 antagonism). Format: in vivo. Conditions: 30 mg/kg oral gavage 30 min before i.d. histamine; bouts counted for 20 minutes; female CD-1 mice. Here is the method: Assessment of H4 Antagonism—Model of Scratching Induced by Histamine in CD-1 mice.
Female CD-1 mice (Charles River, Hollister, Calif.), approximately 10 weeks old were housed under controlled conditions (12 h light: 12 h dark, 21° C.) and allowed ad libitum access to food (Purina LabDiet 5P14) and water. Animals were deprived of access to food and water for 1 hour during the experimental itch protocol. All studies were performed under the guidelines of the Institutional Animal Care and Use Committee of Kalypsys, Inc.
At least 24 hours prior to study initiation, the hair on the rostral dorsum of the animal was clipped to clear a location for intradermal (i.d.) injection of pruritogen (histamine, dissolved in Dulbecco's PBS [pH 7.4] at a concentration of 10 μmol per 20 μL). Animals were dosed by oral gavage with vehicle (9/0.5/0.5/90 PEG-400/Tween-80/PVP-K30/1% carboxymethylcellulose in water) or test compounds (formulated as suspensions in vehicle) at 30 mg/kg in 200 μL by means of a 20 gauge 1.5″ feeding needle affixed to a 1 mL syringe. There were 8 mice per study group. Thirty minutes after oral dosing, animals were injected i.d. with 20 μL of histamine. Immediately afterward animals were placed into individual sections of a standard acrylic cage for observation, which was recorded digitally for a 20 minute period by video cameras (Panasonic SDR-S70/PC) for later review.
Quantitation of induced itch was measured as described previously (Bell, J. K. et al., British Journal of Pharmacology, 142:374-380, 2004) by counting the number of scratching bouts per animal in the 20 minute period after i.d. injection. A scratching bout was defined as three rapid scratch movements of the hind paw in the area of the injection site. Activity with the fore paws was deemed to be grooming and not scratching, and thus was not counted. All data were analyzed using GraphPad Prism (San Diego, Calif.) software, and reported as mean percentage reduction in scratching bouts versus vehicle control. The significance of antagonist effect on agonist-induced itching was analyzed using the nonparametric Mann-Whitney test with P values <0.05 being designated as statistically significant.
Data reported as NT refers to the example having been not tested. It is expected that these compounds when tested will be active and will have utility similar to those that have been tested. In Table 2 below, entries with superscript “1” are statistically significant according to the criteria outlined in the protocol above. Entries with superscript “2” are examples that have been tested on two separate days and the results reported below are the mean of the two experiments

The target of assay [3] is T1, human H1 (Homo sapiens, UniProt P35367).
T1 construct: host or cells: CHO-K1
T1 sequence (P35367 whole entry): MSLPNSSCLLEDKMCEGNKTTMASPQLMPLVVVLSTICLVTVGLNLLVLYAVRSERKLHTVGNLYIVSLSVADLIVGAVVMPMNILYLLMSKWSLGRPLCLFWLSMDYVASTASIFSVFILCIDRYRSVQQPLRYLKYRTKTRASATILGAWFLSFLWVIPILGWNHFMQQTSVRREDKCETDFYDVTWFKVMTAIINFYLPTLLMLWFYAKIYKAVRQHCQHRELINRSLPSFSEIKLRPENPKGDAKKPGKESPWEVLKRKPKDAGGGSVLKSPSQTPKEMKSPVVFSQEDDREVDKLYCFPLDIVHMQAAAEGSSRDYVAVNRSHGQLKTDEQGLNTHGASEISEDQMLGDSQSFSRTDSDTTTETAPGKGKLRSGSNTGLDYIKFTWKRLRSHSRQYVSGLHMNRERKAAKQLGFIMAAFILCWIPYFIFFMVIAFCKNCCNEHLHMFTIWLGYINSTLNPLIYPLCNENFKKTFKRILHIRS
The assay can be described thus: In vitro histamine receptor cell-based assay (aequorin bioluminescence), H1 antagonism. Conditions: CHO-K1 cells expressing human H1 and aequorin; histamine at EC80; read-out: H1 Antagonist EC50. An outline of the steps: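 Stable CHO-K1 lines expressing human H1 or H4 (H4 with Gα16) plus mitochondrial aequorin, loaded 4 h with 5 μM coelenterazine-h at ~21 °C. Compounds preincubated 15 min, then histamine at EC80 added; bioluminescence decrease (AUC or max–min) expressed as % of positive control (diphenhydramine for H1, JNJ7777120 for H4, 10 μM).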

Assay [4] deals with T2, human H4 (Homo sapiens, UniProt Q9H3N8).
T2 construct: host or cells: CHO-K1
T2 sequence (Q9H3N8 whole entry): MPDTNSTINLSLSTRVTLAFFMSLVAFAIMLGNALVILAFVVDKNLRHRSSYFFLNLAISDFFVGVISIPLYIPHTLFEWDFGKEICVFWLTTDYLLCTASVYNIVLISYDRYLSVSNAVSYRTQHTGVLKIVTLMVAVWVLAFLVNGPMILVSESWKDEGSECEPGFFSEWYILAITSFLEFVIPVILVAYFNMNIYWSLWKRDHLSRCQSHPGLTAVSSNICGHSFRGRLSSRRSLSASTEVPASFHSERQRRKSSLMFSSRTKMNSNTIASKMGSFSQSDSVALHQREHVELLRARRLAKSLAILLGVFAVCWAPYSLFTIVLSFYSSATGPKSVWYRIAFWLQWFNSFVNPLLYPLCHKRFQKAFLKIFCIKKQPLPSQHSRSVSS
The assay can be described thus: In vitro histamine receptor cell-based assay (aequorin bioluminescence), H4 antagonism. The settings on record: CHO-K1 cells expressing human H4, aequorin and Gα16; histamine at EC80; read-out: H4 Antagonist EC50. An outline of the steps:
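CHO-K1 cells stably expressing human H4, Gα16 and mitochondrial aequorin, loaded with 5 μM coelenterazine-h, preincubated 15 min at room temperature with compound, then challenged with histamine at EC80.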

Assay [5] has as its system Hartley VAF outbred guinea pigs. The assay can be described thus: Allergic conjunctivitis in passively sensitized guinea pigs (conjunctival EPO activity). Also on record: key: +: a 0.01% bid dose was statistically equivalent to dexamethasone with respect to reduction of EPO activity; −: the compound was statistically inferior to dexamethasone and not different than vehicle. The settings on record: 0.01% bid topical, 1 hour prior to and 8 hours after ovalbumin challenge; reduction of conjunctival EPO activity vs dexamethasone. Format: in vivo. Here is the method:
as §1, §2

A word on the EC50: it is the concentration that produces a half-maximal response. As for `Cc1nc2c3cc(C(F)(F)F)ccc3nc(N3CCN(C)CC3)n2n1` [Example 103, 2-Methyl-5-(4-methylpiperazin-1-yl)-9-(trifluoromethyl)-[1,2,4]triazolo[1,5-c]quinazoline], the QD activity result in assay [1] is recorded as “+”. In addition, in assay [2], the “Scratching Bouts (% change from vehicle control)” value is reported as −37%. Further, the figures for the concentration for a half-maximal effect (EC50) in assay [3] and in assay [4] were > 10 µM and < 10 µM, respectively.

Turning to `CN1CCN(c2nc3ccc(Cl)cc3n3nnnc23)CC1` [Example 20, 8-Chloro-4-(4-methylpiperazin-1-yl)tetrazolo[1,5-a]quinoxaline], the “Scratching Bouts (% change from vehicle control)” value in assay [2] was −1%. Besides, the figures for the EC50 in assay [3] and in assay [4] were > 10 µM and < 10 µM, respectively. In assay [5], the BID activity entry is given as “−”.

With `CN1CCN(c2nc3ccc(Cl)cc3c3c[nH]nc23)CC1` [Example 152, 8-Chloro-4-(4-methylpiperazin-1-yl)-2H-pyrazolo[3,4-c]quinoline], the “Scratching Bouts (% change from vehicle control)” value in assay [2] is given as −13%. The figures for the EC50 in assay [3] and in assay [4] were > 10 µM and < 10 µM, respectively. Also, the BID activity entry in assay [5] is recorded as “−”.

With `Cc1nc2c3cc(Cl)ccc3nc(N3CCNCC3)n2n1` [Example 112, 9-Chloro-2-methyl-5-(piperazin-1-yl)-[1,2,4]triazolo[1,5-c]quinazoline], the “Scratching Bouts (% change from vehicle control)” value in assay [2] is recorded as −73^1%. For the same molecule, the results for the EC50 in assay [3] and in assay [4] were > 10 µM and < 10 µM, respectively.

As for `Cc1nc2c3cc(Cl)ccc3nc(N3CCN(C)CC3)n2n1` [Example 113, 9-chloro-2-methyl-5-(4-methylpiperazin-1-yl)-[1,2,4]triazolo[1,5-c]quinazoline], the “Scratching Bouts (% change from vehicle control)” value in assay [2] is −66^1,2%. Further, the EC50 is > 10 µM in assay [3] and < 10 µM in assay [4]. The BID activity result in assay [5] is “−”.
